Data set [1] in a line: Stability tests of imine quat in the presence of hydrogen peroxide at various pH (1H NMR integral ratio; permanganate titration). The class given is physicochemical. The method, then:
The stability of N-methyl-3,4 dihydroisoquinolinium tosylate in the presence of hydrogen peroxide was tested at various pH values. To this end samples were prepared containing 6.0% w/w hydrogen peroxide, 2.0% w/w of the imine quat and 0.01% w/w Dequest™ 2047 (ethylenediamine-tetra[methylene-phosphonic acid] sodium salt, a sequestrant marketed by Monsanto). This is equivalent to a partial composition which together with a second partial composition of the same volume would lead to a final composition with 3% hydrogen peroxide and 1% imine quat.
The pH of the samples was adjusted using 1.0M hydrochloric acid or 2.0M sodium hydroxide as required. During the test the pH of the samples was re-adjusted as indicated using 2.0M sodium hydroxide.
The hydrogen peroxide content was determined by titration against 0.02 M potassium permanganate. […] Complete reaction of 1 equivalent of hydrogen peroxide with 1 equivalent of imine quat would result in a decrease in hydrogen peroxide concentration of 0.2% w/w.
Imine quat stability was monitored using ^1H NMR spectroscopy, by comparing the ratio of the integrals of the iminium proton which appears at 8.85 ppm relative to TMS, with those for the aromatic protons on the inert tosylate counter-ion, which are observed at 7.65 ppm. Loss of imine quat (e.g. through reaction with hydrogen peroxide) is observed as a decrease in the iminium:tosylate integral ratio, and % of imine quat remaining is calculated as integral ratio after storage÷initial integral ratio.

For data set [2], the system named is black mould (Cladosporium cladosporoides), autoclaved mould paste. Nature of the data set: Bleaching of autoclaved black mould paste on porous ceramic tiles, expert panel score 0-6. The method, then:
Hydrogen peroxide solutions with and without imine quat (N-methyl-3,4-dihydroisoquinolinium tosylate) and at various pH values were tested on their ability to bleach black mould in comparison with sodium hypochlorite, which is the standard product used to clean black mould stains. The hydrogen peroxide solutions were all freshly prepared just before testing so as to mimic compositions obtained by mixing appropriate partial compositions on dispensing. In order to obtain reproducible results an autoclaved mould paste was used for the testing.
Cultures of hyphal Cladosporium cladosporoides were prepared on agar jelly. Warm water was used to dissolve the jelly and separate it from the mould hyphae, which were then autoclaved. […]
Small circular pieces of single ply tissue paper were cut to a convenient size and placed on the surface of the ‘mould tile’ test pieces, such that the edges of the test pieces remain uncovered. A fixed quantity of the test solution was allowed to drop onto the surface of the tissue and allowed to soak into the tile. […]
Test pieces were assessed for the level of mould bleaching by an expert panel, using a integer scale running from 0 (no decolorisation) to 6 (complete bleaching). Panel test data for each system was collated and analysed statistically to provide mean scores for each test system. […]

Data set [3] in a line: Stability tests of imine quat in the presence of hydrogen peroxide at various pH (1H NMR integral ratio; permanganate titration). To be noted: pH 8, without hydrogen peroxide, 2% imine quat, three days after preparation. The format is physicochemical.
Data set [4] is described as follows: Bleaching of tea stained cotton cloth (reflectance). To be noted: pH 10.0 or higher, vs 1% sodium hypochlorite pH 12. From the text: Tea stained cotton (BC-1) cloth is routinely used in the assessment of laundry bleaches. Here the method was adapted as an easy and readily reproducible indicator of the activity of the composition against a common hydrophilic household soil in comparison with a standard hypochlorite bleach.
Lengths of pre-stained BC-1 cotton cloth was cut into square swatches (2 cm×2 cm). For each composition four replicate cloths were placed in the bottom of a clean glass beaker and covered with the cleaning composition at room temperature. After the required contact time (generally 2 or 5 minutes) had elapsed, the cloths were removed from the cleaning solution using tweezers and immediately immersed in distilled water. The cloths were stirred in the water, and the washing procedure repeated twice more using fresh water each time. Washed cloths were then pressed between two filters to remove excess water and placed on fresh filter papers, in the dark, to dry.
Reflectance measurements were carried out on a Spectraflash 400 instrument. ΔR measurements were calculated using ‘40ptspec’ software, using a portion of untreated cloth from the same BC-1 cloth batch as a standard. Results obtained from each of the four replicate test cloths were then statistically analysed to obtain mean ΔR values for each bleach system.

The mark [5] stands for this setting: target pH 5.5, 0 days storage, sample 6.0% H2O2 + 2.0% imine quat.
Setting [6] is: target pH 5.5, 148 days storage.
Where [7] appears, read: target pH 6.0, 148 days storage.
The mark [8] stands for this setting: target pH 6.5, 148 days storage.
Where [9] appears, read: target pH 7.0, 148 days storage.
Setting [10] is: target pH 7.5, 148 days storage.

On to `OO` [hydrogen peroxide, reference compound], for which the “% hydrogen peroxide” value in data set [1] (setting [5]) was found to be 6.00%; in data set [1] (setting [6]), 5.99%; in data set [1] (target pH 6.0, 0 days storage), 6.00%; in data set [1] (setting [7]), 5.95%; in data set [1] (target pH 6.5, 0 days storage), 6.00%; in data set [1] (setting [8]), 5.89%. Further, the “% hydrogen peroxide” value in data set [1] (target pH 7.0, 0 days storage) is 6.00%; in data set [1] (setting [9]), 5.84%; in data set [1] (target pH 7.5, 0 days storage), 6.00%; in data set [1] (setting [10]), 5.69%. Also, the “mould bleaching performance” value in data set [2] (pH 5.5) was “ineffective”.
For `C[N+]1=Cc2ccccc2CC1.Cc1ccc(S(=O)(=O)[O-])cc1` [Imine Quat, N-methyl-3,4-dihydroisoquinolinium tosylate], in data set [1] (pH 8, in the presence of 6% hydrogen peroxide, 4 hours after preparation), the “% of the original amount of imine quat still detectable” value was found to be 5%. Moreover, the imine quat detectable entry in data set [1] (pH 8, in the presence of 6% hydrogen peroxide, one day after preparation) was “no imine quat was detectable”. For the same molecule, the “% Imine Quat remaining” value in data set [1] (setting [5]) amounted to 100%; in data set [1] (setting [6]), 93%; in data set [1] (target pH 6.0, 0 days storage) it was 100%; in data set [1] (setting [7]), 83%; in data set [1] (target pH 6.5, 0 days storage), 100%; in data set [1] (setting [8]) it was 67%. The “% Imine Quat remaining” value was 100% in data set [1] (target pH 7.0, 0 days storage); 43% in data set [1] (setting [9]); 100% in data set [1] (target pH 7.5, 0 days storage); 33% in data set [1] (setting [10]). The “% of the original amount of imine quat remaining” value in data set [3] stood at 5%. In addition, the “effect of adding Imine Quat on tea stain bleaching” value in data set [4] was “boosts the performance of hydrogen peroxide to values very close to those observed using hypochlorite”. Besides, in data set [2] (pH 10.5 and 11.0), the “effect of adding Imine Quat on mould bleaching over hydrogen peroxide” value is recorded as “significant improvement in performance”.

(Values after patent publication US6391840B1, “Multiple component bleaching compositions” (Unilever Home & Personal Care USA, division of Conopco, Inc., priority 1999, dated 2002).)
